Experimental data reported in paper PMC10666548, “Identification of the bacterial metabolite aerugine as potential trigger of human dopaminergic neurodegeneration” (Environment international, 2023).
Entries after “also recorded” stand apart in the source; their conditions may differ.

Legend:
[1] = tested on: mitochondrial respiration in LUHMES cells; assay: Seahorse assessment of mitochondrial respiratory parameters; assay type: cell-based, human; conditions: d3 LUHMES
Experimental: The method was performed as described previously. ([Delp et al., 2018]) In brief, LUHMES cells were seeded on d2 into pre-coated Agilent Seahorse XFe24 well plates at a density of 100′000 cells/well in differentiation medium. On d3 the cells were analyzed in a Seahorse XF analyzer using the Mito stress test kit in accordance with the manufacturer’s instructions. In brief, 1 h prior to analysis the medium was changed to Seahorse XF base medium supplemented with 18 mM glucose, 2 mM glutamine and 1 mM pyruvate. The oxygen consumption rate (OCR) was measured to determine the basal respiration in untreated cells. After test compound injection the acute response was quantified. […] The addition of 0.5 μM rotenone and 0.5 μM antimycin A completely shut down mitochondrial respiration to quantify non-mitochondrial respiration. […] Image acquisition was performed using an Array-Scan VTI HCS Reader (Cellomics, PA, USA) equipped with a Hamamatsu ORCA-ER camera. […] Nuclei were identified and quantified depending on intensity, area, size and shape. According to pixel size and well size the total cell count was calculated and used for normalization of the OCR data. […]
A The effect of aerugine on respiratory function was analysed in d3 LUHMES cells. […] C Delp et al. (2019) determined the dependence of LUHMES cells on glycolysis and their mitochondria for ATP production in two different media conditions. […]

[2] = tested on: d3 LUHMES cells; assay: Aerugine toxicity in glucose vs galactose medium; assay type: cell-based, human
Experimental: Ückert et al. (2023): Identification of the bacterial metabolite aerugine as potential trigger of human dopaminergic […]
A The effect of aerugine on respiratory function was analysed in d3 LUHMES cells. The oxygen consumption rate of the individual technical replicates is shown. The oxygen consumption rate is normalised to the last measurement before injection. The injections of aerugine, control and the subsequent assay tool compounds are indicated (FCCP: 1.5 µM; oligomycin: 1 µM; rotenone + antimycin A: 0.5 µM +0.5 µM). B Several parameters were derived from the oxygen consumption rate. The data is presented as means ± SD of four replicates (obtained from one cell batch). Statistical analysis was performed using a one-way ANOVA with Dunnett‘s multiple comparisons test. * = p < 0.0001. C Delp et al. (2019) determined the dependence of LUHMES cells on glycolysis and their mitochondria for ATP production in two different media conditions. […]
mitochondrial metabolism in producing ATP in the two different media. D Aerugine toxicity was assessed in d3 LUHMES cells cultured in glucose and in galactose medium. Cell viability was assessed by calcein-AM & H-33342 staining and automated fluorescence microscopy. Double positive cells were counted as viable, H-33342 mono-positive cells were counted as dead.

[3] = tested on: C. elegans strains BY200 and Punc-25; assay: C. elegans lethality analysis (eight day survival test); assay type: in vivo, Caenorhabditis elegans; conditions: L4 larval stage, 8, 40 and 100 μM, up to 8 days
Experimental: The strain BY200 Pdat-1::gfp (vtIs1), dat-1::GFP(vtls1) was kindly provided by the Blakely laboratory, Vanderbilt University Medical Center and the strain Punc-25:GFP was obtained from the Caenorhabditis Genetics Center (CGC, University of Minnesota, Minneapolis, MN, USA). The worms were maintained in nematode growth medium (NGM) plates that contain: 3 g/l NaCl, 17 g/l agar, 2.5 g/l peptone, 1 mM CaCl2, 5 mg/l cholesterol, 1 mM MgSO4, 25 mM potassium phosphate buffer (pH 6.0) with 1.25 ml nystatin and 50 mg/l streptomycin sulfate) and Escherichia coli (E. coli) OP50 strain was used as food ([Brenner, 1974]). Synchronization of worms was carried out using extraction solution (0.2% NaOCl, 0.5 M NaOH, in distilled water). The first larval stage (L1) population were obtained by isolating eggs with a 30% sucrose gradient, washed with sterile water, and resuspended in M9 buffer (42 mM Na2HPO4, 22 mM KH2PO4, 8.5 mM NaCl, and 1 mM MgSO4) ([Sulston and Hodgkin, 1998]).
For the lethality analysis, 40 to 60 BY200 and P unc-25 worms at L4 larval stage were exposed to vehicle or aerugine (8, 40 and 100 μM) in OP50-seeded NGM plates from day 0 until day 8. […] Moreover, worms were transferred to fresh plates for the first three days of treatment, which coincide with the egg laying days to avoid mixing of different generations. […]

Compound: OCC1CSC(c2ccccc2O)=N1 (stereo not shown) [aerugine, 2-[4-(hydroxymethyl)-4,5-dihydro-1,3-thiazol-2-yl]phenol]
- functional respiratory parameters (e.g. basal respiration, ATP production) [1]: no significant difference was observed
- oxygen consumption rate (OCR) ([1]; various metabolic conditions): not different from control conditions; also recorded: No interaction
- toxicity in galactose vs glucose medium [2]: no increased aerugine toxicity was observed
- general survival of worms [3]: neither triggered death during the first 2 days; also recorded: not affected
